Values quoted from earlier work as cited in PMC9112550, “Optimization of the antimicrobial peptide Bac7 by deep mutational scanning” (BMC Biology, 2022).

Tested on: Salmonella typhimurium
Conditions: 30 mg kg^−1, mice infected with Salmonella typhimurium intraperitoneally
Text: Lastly, it is hard to judge if the activity increase of Bac7PS compared to Bac7_1-23 measured in vitro can be translated to in vivo experiments. […] In our study, all untreated mice already ...

## Bac7_1-35: Bac7_1-35 (35 amino acid long) (RRIRPRPPRLPRPRPRPLPFPRPGPRPIPRPLPFP; Bactenecin-7; UniProt P19661 131-165, looked up, fragment)
  efficacy: 36%
Untreated control 10 days
  mean survival: 24.5 days
